Experimental data from US7482024B2, “Compositions comprising an active agent” (Nektar Therapeutics, priority 1999, dated 2009).
Values joined by “and” are separate entries in the source; they are usually repeats but may differ in a detail not shown here. Equal values may be shown once.

Test: Surface tension measurement, Kruss Processor Tensiometer-K12, Wilhelmy-method (plate method)
Type: physicochemical
Details: for Surface tension (ST): 1% raffinose
Method: A “surface active” material is one having surface activity (measured, e.g., by surface tensiometry), as characterized by its ability to reduce the surface tension of the liquid in which it is dissolved. […] A peptide that is more surface active than another peptide is one which decreases the surface tension of water to a greater extent, when present in the liquid at the same concentration and measured under the same set of experimental conditions. The surface tension of several representative dipeptides, tripeptides, and proteins was measured at 25° C. and 45° C. to provide an indication of their relative surface activities. Surface tension measurements were carried out using a Kruss Processor Tensiometer-K12 with the Wilhelmy-method (Plate method). Solutions were prepared by dissolving either 0.05%, 0.2%, or 0.6% peptide/protein (by weight) along with an appropriate amount of raffinose by weight to provide final solutions having a 1.0% by weight solids content. Surface tension measurements at 25° C. and 45° C. were then obtained for the test solutions at three different time points (49 seconds, 100 seconds and 194 seconds).

OC[C@H]1O[C@H](OC[C@H]2O[C@H](O[C@]3(CO)O[C@H](CO)[C@@H](O)[C@@H]3O)[C@H](O)[C@@H](O)[C@@H]2O)[C@H](O)[C@@H](O)[C@H]1O [raffinose]
Surface activity (ability to lower the surface tension of water), in words: non-surface active | Surface tension (ST) (25° C., 49 s): 72 mN/m | Surface tension (ST) (25° C., 100 s): 72 mN/m | Surface tension (ST) (25° C., 194 s): 72 mN/m | Surface tension (ST) (pH4, 25° C., 49 s): 71.4 mN/m and 71.1 mN/m | Surface tension (ST) (pH4, 25° C., 100 s): 71.4 mN/m and 71.1 mN/m | Surface tension (ST) (pH4, 25° C., 194 s): 71.4 mN/m and 71.1 mN/m | Surface tension (ST) (pH4, 45° C., 49 s): 67.9 mN/m and 68.2 mN/m and 68 mN/m | Surface tension (ST) (pH4, 45° C., 100 s): 68 mN/m and 68.2 mN/m | Surface tension (ST) (pH4, 45° C., 194 s): 68 mN/m and 68.2 mN/m and 68.1 mN/m | Surface tension (ST) (pH7, 25° C., 49 s): 71.1 mN/m | Surface tension (ST) (pH7, 25° C., 100 s): 71.1 mN/m | Surface tension (ST) (pH7, 25° C., 194 s): 71.1 mN/m | Surface tension (ST) (pH7, 45° C., 49 s): 68.4 mN/m and 68.3 mN/m | Surface tension (ST) (pH7, 45° C., 100 s): 68.4 mN/m and 68.3 mN/m | Surface tension (ST) (pH7, 45° C., 194 s): 68.4 mN/m and 68.3 mN/m
